Assay results published in patent publication US9540357B1, “15-aryl prostaglandins as EP4 agonists, and methods of use thereof” (Allergan, Inc., priority 2014, dated 2017).
Values joined by “and” are separate entries in the source; they are usually repeats but may differ in a detail not shown here. Equal entries are not always repeated.

Legend:
EP2 = EP2 (Homo sapiens (Human), UniProt P43116); experiment: Competition binding ([3H]PGE2), EP2; details: HEK 293 cells stably expressing human EP2 receptors, [3H]PGE2 10 nM
Chain of EP2 (P43116 whole entry): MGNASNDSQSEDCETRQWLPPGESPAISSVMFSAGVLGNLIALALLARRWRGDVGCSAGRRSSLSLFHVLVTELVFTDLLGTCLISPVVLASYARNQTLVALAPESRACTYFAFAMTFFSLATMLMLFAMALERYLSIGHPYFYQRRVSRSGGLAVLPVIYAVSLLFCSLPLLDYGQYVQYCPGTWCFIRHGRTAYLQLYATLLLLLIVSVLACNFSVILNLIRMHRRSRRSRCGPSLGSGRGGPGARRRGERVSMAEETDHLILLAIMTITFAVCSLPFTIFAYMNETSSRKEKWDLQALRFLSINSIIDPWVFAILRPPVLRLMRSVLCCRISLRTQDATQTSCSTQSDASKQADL
Description: Competition binding experiments were performed in a medium containing Hank's balanced salt solution, HEPES 20 mM, pH 7.3, membranes (˜60 μg protein) or 2×10^5 cells from HEK 293 cells stably expressing human EP2 receptors, [^3H]PGE2 (10 nM) and various concentrations of test compounds in a total volume of 300 μl. Reaction mixtures were incubated at 23° C. for 60 min, and were filtered over Whatman GF/B filters under vacuum. Filters were washed three times with 5 ml ice-cold buffer containing 50 mM Tris/HCl (pH 7.3). Non-specific binding was estimated in the presence of excess unlabeled PGE2 (10 μM). Binding data fitted to the binding model for a single class of binding sites, using nonlinear regression analysis. IC50 values thus obtained were converted to Ki using the equation of Ki=(IC50/(1+[L]/KD) where [L] represents PGE2 concentration (10 nM) and KD the dissociation constant for [^3H]PGE2 at human EP2 receptors (40 nM).

EP4 [1] = target: T1, EP4 (Homo sapiens (Human), UniProt P35408); experiment: cAMP assay, EP4; assay type: cell-based; details: HEK-EBNA cells expressing EP4
T1 sequence (P35408 whole entry): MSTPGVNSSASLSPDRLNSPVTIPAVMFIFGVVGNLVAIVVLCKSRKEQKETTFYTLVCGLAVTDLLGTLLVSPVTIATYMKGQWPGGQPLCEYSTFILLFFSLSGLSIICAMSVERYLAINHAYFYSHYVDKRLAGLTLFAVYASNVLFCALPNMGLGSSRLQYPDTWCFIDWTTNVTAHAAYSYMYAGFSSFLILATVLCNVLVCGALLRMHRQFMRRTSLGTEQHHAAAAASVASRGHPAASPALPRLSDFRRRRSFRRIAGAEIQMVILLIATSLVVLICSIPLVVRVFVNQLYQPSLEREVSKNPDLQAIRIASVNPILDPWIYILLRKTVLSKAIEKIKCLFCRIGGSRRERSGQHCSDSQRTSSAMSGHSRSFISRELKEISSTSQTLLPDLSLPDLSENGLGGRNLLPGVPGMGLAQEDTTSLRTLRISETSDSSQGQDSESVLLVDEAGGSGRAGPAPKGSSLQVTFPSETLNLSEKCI
Description: A 384-well drug plate was prepared to contain 6 test compounds, PGE2 and cAMP in 16 serial dilutions in triplicate, using a Biomek station. HEK-EBNA cells expressing a target PG receptor subtype (EP2 or EP4) were suspended in a stimulation buffer (HBSS, 0.1% BSA, 0.5 mM IBMX and 5 mM HEPES, pH 7.4) in a density of 10^4 cells/5 microliters. The reaction was initiated by mixing 5 microliters drug dilutions with 5 microliters of HEK-EBNA cells in a well, carried out for 30 min at room temperature, and followed by the addition of 5 microliters anti-cAMP acceptor beads in the control buffer with Tween-20 (25 mM NaCl, 0.03% Tween-20, 5 mM HEPES, pH 7.4). After 30 min in the dark at room temperature, the mixtures were incubated with 15 microliters biotinylated-cAMP/streptavidin donor beads in Lysis/Detection buffer (0.1% BSA, 0.3% Tween-20 and 5 mM HEPES, pH 7.4) for 45 min at room temperature. Fluorescence changes were read using a Fusion-alpha microplate reader.

EP4 [2] = target: T1, EP4; experiment: Competition binding, EP4

| SMILES | EP2 Ki (EP2) | EC50 (EP4 [1]) | Ki (EP4 [2]) | EP4 cAMP EC50 (EP4 [1]) | Ki (EP2) | EP4 Ki (EP4 [2]) |
| --- | --- | --- | --- | --- | --- | --- |
| Cc1cc(Cl)ccc1-c1cc(F)cc(C(O)/C=C/[C@H]2CCC(=O)N2CCCc2ccc(C(=O)O)cc2)c1 (single isomer, unassigned) [Example 34] | > 10000 nM | 1740 nM | 4340 nM | – | – | – |
| Cc1c(-c2cccc(C(O)/C=C/[C@H]3CCC(=O)N3CCCc3ccc(C(=O)O)cc3)c2)ccc(Cl)c1Cl (single isomer, unassigned) [Example 22] | > 10000 nM | 35 nM | 2340 nM | – | – | – |
| O=C(O)c1ccc(CCCN2C(=O)CC[C@@H]2/C=C/C(O)c2ccccc2)cc1 (single isomer, unassigned) [Example 4] | > 10000 nM | 5540 nM | 4970 nM | – | – | – |
| Cc1cc(F)ccc1-c1cccc(C(O)/C=C/[C@H]2CCC(=O)N2CCCc2ccc(C(=O)O)cc2)c1 (stereo partly drawn) [Example 11, 4-(3-{2(R)-[(1E)-3-(4′-fluoro-2′-methylbiphenyl-3-yl)-3-hydroxyprop-1-en-1-yl]-5-oxopyrrolidin-1-yl}propyl)benzoic acid] | > 10000 nM | – | > 1340 nM | – | – | – |
| O=C(O)c1ccc(CCCN2C(=O)CC[C@@H]2/C=C/C(O)c2cccc(-c3ccccc3)c2)cc1 (single isomer, unassigned) [Example 6] | > 10000 nM | – | 6710 nM | > 10000 nM | – | – |
| O=C(O)c1ccc(CCCN2C(=O)CC[C@@H]2/C=C/C(O)c2cccc(-c3ccc(Cl)cc3CO)c2)cc1 (stereo partly drawn) [Example 18, 4-[3-(2(R)-{(1E)-3-[4′-chloro-2′-(hydroxymethyl)biphenyl-3-yl]-3-hydroxyprop-1-en-1-yl}-5-oxopyrrolidin-1-yl)propyl]benzoic acid] | > 10000 nM | – | – | > 10000 nM | – | > 10000 nM |
| O=C(O)c1ccc(CCCN2C(=O)CC[C@@H]2/C=C/C(O)c2cccc(-c3ccc(Cl)cc3CO)c2)cc1 (stereo partly drawn) [Example 19, 4-[3-(2(R)-{(1E)-3-[4′-chloro-2′-(hydroxymethyl)biphenyl-3-yl]-3-hydroxyprop-1-en-1-yl}-5-oxopyrrolidin-1-yl)propyl]benzoic acid] | > 10000 nM | 95 nM and 165 nM | 658 nM | – | – | – |
| CCCc1cc(Cl)ccc1-c1cccc(C(O)/C=C/[C@H]2CCC(=O)N2CCCc2ccc(C(=O)O)cc2)c1 (single isomer, unassigned) [Example 24] | > 10000 nM | 2340 nM | 1310 nM | – | – | – |
| O=C(O)c1ccc(CCCN2C(=O)CC[C@@H]2/C=C/C(O)c2ccccc2)cc1 (single isomer, unassigned) [Example 3] | > 10000 nM | 9210 nM | – | – | – | > 10000 nM |
| CCCCc1cc(Cl)ccc1-c1cccc(C(O)/C=C/[C@H]2CCC(=O)N2CCCc2ccc(C(=O)O)cc2)c1 (stereo partly drawn) [Example 28, 4-(3-{2(R)-[(1E)-3-(2′-butyl-4′-chlorobiphenyl-3-yl)-3-hydroxyprop-1-en-1-yl]-5-oxopyrrolidin-1-yl}propyl)benzoic acid] | > 10000 nM | – | 5160 nM | – | – | – |
| Cc1cc(Cl)cc(C)c1-c1cccc(C(O)/C=C/[C@H]2CCC(=O)N2CCCc2ccc(C(=O)O)cc2)c1 (single isomer, unassigned) [Example 20] | > 10000 nM | 138 nM | 955 nM | – | – | – |
| Cc1ccccc1-c1cccc(C(O)/C=C/[C@H]2CCC(=O)N2CCCc2ccc(C(=O)O)cc2)c1 (single isomer, unassigned) [Example 7] | > 10000 nM | 14 nM | 1150 nM | – | – | – |
| CC(C)(C)c1cc(Cl)ccc1-c1cccc(C(O)/C=C/[C@H]2CCC(=O)N2CCCc2ccc(C(=O)O)cc2)c1 (stereo partly drawn) [Example 26, 4-(3-{2(R)-[(1E)-3-(2′-tert-butyl-4′-chlorobiphenyl-3-yl)-3-hydroxyprop-1-en-1-yl]-5-oxopyrrolidin-1-yl}propyl)benzoic acid] | > 10000 nM | – | 8850 nM | > 10000 nM | – | – |
| Cc1cc(Cl)ccc1-c1cc(C(O)/C=C/[C@H]2CCC(=O)N2CCCc2ccc(C(=O)O)cc2)ccc1F (single isomer, unassigned) [Example 36] | > 10000 nM | 1030 nM | 4480 nM | – | – | – |
| Cc1cc(Cl)ccc1-c1cc(C(O)/C=C/[C@H]2CCC(=O)N2CCCc2ccc(C(=O)O)cc2)ccc1F (single isomer, unassigned) [Example 37] | – | 123 nM and 211 nM | – | – | – | – |
| Cc1cc(Cl)ccc1-c1ccc(C(O)/C=C/[C@H]2CCC(=O)N2CCCc2ccc(C(=O)O)cc2)s1 (stereo partly drawn) [Example 32, 4-[3-(2(R)-{(1E)-3-[5-(4-chloro-2-methylphenyl)thiophen-2-yl]-3-hydroxyprop-1-en-1-yl}-5-oxopyrrolidin-1-yl)propyl]benzoic acid] | > 10000 nM | – | 4830 nM | – | – | – |
| O=C(O)c1ccc(CCCN2C(=O)CC[C@@H]2/C=C/C(O)c2cccc(-c3ccccc3)c2)cc1 (single isomer, unassigned) [Example 5] | > 10000 nM | – | 8560 nM | – | – | – |

The remaining compounds from weak to strong by Ki (EP4 [2]), led by results:

| EP2 Ki (EP2) | EC50 (EP4 [1]) | Ki (EP4 [2]) | EP4 cAMP EC50 (EP4 [1]) | Ki (EP2) | SMILES | EP4 Ki (EP4 [2]) |
| --- | --- | --- | --- | --- | --- | --- |
| > 10000 nM | 134 nM | 582 nM | – | – | CC(C)c1cc(O)ccc1-c1cccc(C(O)/C=C/[C@H]2CCC(=O)N2CCCc2ccc(C(=O)O)cc2)c1 (stereo partly drawn) [Example 30, 4-[3-(2(R)-{(1E)-3-hydroxy-3-[4′-hydroxy-2′-(propan-2-yl)biphenyl-3-yl]prop-1-en-1-yl}-5-oxopyrrolidin-1-yl)propyl]benzoic acid] | – |
| > 10000 nM | 118 nM | 536 nM | – | – | Cc1cc(Cl)ccc1-c1ccc(C(O)/C=C/[C@H]2CCC(=O)N2CCCc2ccc(C(=O)O)cc2)s1 (stereo partly drawn) [Example 33, 4-[3-(2(R)-{(1E)-3-[5-(4-chloro-2-methylphenyl)thiophen-2-yl]-3-hydroxyprop-1-en-1-yl}-5-oxopyrrolidin-1-yl)propyl]benzoic acid] | – |
| > 10000 nM | 87 nM | 332 nM | – | – | O=C(O)c1ccc(CCCN2C(=O)CC[C@@H]2/C=C/C(O)c2cccc(-c3ccc(Cl)cc3C(F)(F)F)c2)cc1 (single isomer, unassigned) [Example 16] | – |
| > 10000 nM | 33 nM | 216 nM | – | – | CCc1cc(Cl)ccc1-c1cccc(C(O)/C=C/[C@H]2CCC(=O)N2CCCc2ccc(C(=O)O)cc2)c1 (single isomer, unassigned) [Example 14] | – |
| > 10000 nM | 60 nM | 211 nM | – | – | CC(C)c1cc(O)ccc1-c1cccc(C(O)/C=C/[C@H]2CCC(=O)N2CCCc2ccc(C(=O)O)cc2)c1 (stereo partly drawn) [Example 31, 4-[3-(2(R)-{(1E)-3-hydroxy-3-[4′-hydroxy-2′-(propan-2-yl)biphenyl-3-yl]prop-1-en-1-yl}-5-oxopyrrolidin-1-yl)propyl]benzoic acid] | – |
| > 10000 nM | 3 nM | 140 nM | – | – | Cc1c(-c2cccc(C(O)/C=C/[C@H]3CCC(=O)N3CCCc3ccc(C(=O)O)cc3)c2)ccc(Cl)c1Cl (single isomer, unassigned) [Example 23] | – |
| > 10000 nM | 63 nM | 130 nM | – | – | CCCc1cc(Cl)ccc1-c1cccc(C(O)/C=C/[C@H]2CCC(=O)N2CCCc2ccc(C(=O)O)cc2)c1 (single isomer, unassigned) [Example 25] | – |
| > 10000 nM | 2 nM | 60 nM | – | – | Cc1cc(Cl)cc(C)c1-c1cccc(C(O)/C=C/[C@H]2CCC(=O)N2CCCc2ccc(C(=O)O)cc2)c1 (single isomer, unassigned) [Example 21] | – |
| > 10000 nM | 8 nM | 53 nM | – | – | Cc1cc(F)ccc1-c1cccc(C(O)/C=C/[C@H]2CCC(=O)N2CCCc2ccc(C(=O)O)cc2)c1 (stereo partly drawn) [Example 12, 4-(3-{2(R)-[(1E)-3-(4′-fluoro-2′-methylbiphenyl-3-yl)-3-hydroxyprop-1-en-1-yl]-5-oxopyrrolidin-1-yl}propyl)benzoic acid] | – |
| – | 4 nM | 23 nM | – | 4320 nM | Cc1cc(Cl)ccc1-c1cccc(C(O)/C=C/[C@H]2CCC(=O)N2CCCc2ccc(C(=O)O)cc2)c1 (stereo partly drawn) [Example 13, 4-(3-{2(R)-[(1E)-3-(4′-chloro-2′-methylbiphenyl-3-yl)-3-hydroxyprop-1-en-1-yl]-5-oxopyrrolidin-1-yl}propyl)benzoic acid] | – |
| > 10000 nM | 3 nM | 11 nM | – | – | O=C(O)c1ccc(CCCN2C(=O)CC[C@@H]2/C=C/C(O)c2cccc(-c3ccc(Cl)cc3C(F)(F)F)c2)cc1 (single isomer, unassigned) [Example 17] | – |
| > 10000 nM | 3 nM | 6 nM | – | – | CCc1cc(Cl)ccc1-c1cccc(C(O)/C=C/[C@H]2CCC(=O)N2CCCc2ccc(C(=O)O)cc2)c1 (single isomer, unassigned) [Example 15] | – |
